The values that follow come from publication PMC4862498, “PI4 Kinase Is a Prophylactic but Not Radical Curative Target in Plasmodium vivax-Type Malaria Parasites” (Antimicrobial Agents and Chemotherapy, 2016).

Details of data set [1]: species or system rhesus macaques (Macaca mulatta). Particulars: rhesus monkey, in vivo, po, 20 mg/kg. The text has this:
Blood samples were collected for clinical evaluation and pharmacokinetic (PK) analysis (see Table S2 in the supplemental material).
Details of in vivo PK studies of KDU691 and LMV599 in CD-1 mice and monkeys can be found in the supplemental material.
(§1) P. cynomolgi sporozoite production
(§2) A monkey was infected with […] P. cynomolgi M strain blood stage parasites, thawed from a first passage stock (i.e. blood stage parasites from a monkey infected with P. cynomolgi M strain sporozoites). For each batch of sporozoites needed, a single monkey was infected with P. cynomolgi blood stage parasites.
(§3) At day 11 and 12 post infection 9 mL infected blood was collected into a Lithium-heparinised tube. The blood was kept at 38°C and fed approximately 500 three to five days old female Anopheles stephensi mosquitoes Sind-Kasur strain Nijmegen (Nijmegen University Medical Centre St Radboud, Department of Medical Microbiology) using a glass feeder system as described by Ponnudurai et al.. After the second bleed, the monkey was cured by three daily intramuscular injections of 7.5 mg/kg chloroquine, monitored for parasite clearance 24 days after chloroquine treatment and returned to colony.
(§4) Mosquitoes were kept in climate chambers at 25 °C and 80% humidity and were fed 5% D -glucose on cotton pads daily. Seven days after feeding on the infected rhesus blood, oocyst numbers were determined in midguts of ten individuals, using 1% mercurochrome stain. Mosquitoes were given a second (uninfected) blood meal immediately afterwards to promote sporozoite maturation and invasion of the salivary glands. Sporozoites were isolated from the P. cynomolgi infected mosquitoes around day16 after the infected blood meal.
In vivo monkey infection and treatment procedures
Sporozoites were isolated from the P. cynomolgi infected mosquitoes around day16 after the infected blood meal. For this, mosquitoes were collected in a beaker and killed with 70% ethanol. After four washes in Leibovitz’ L15 medium containing 3% FCS and 2% pen/strep, salivary glands were dissected.
Salivary glands were kept on ice at all times, sporozoites were liberated by pottering. The sporozoites were washed with PBS, counted in a Burker-Turk chamber, and diluted to 100,000 spz/mL in PBS.
Aliquots of 1 mL were prepared and injected into monkeys via intravenous (i.v.) injection. […]
group (691-RC-high) and a control group (691-C)
KDU691 was formulated as a micro suspension in 0.5% Methylcellulose/0.5% Tween 80 in water, maximum one hour before dosing. The amount of KDU691 sufficient to treat all animals of one group was weighed, a microsuspension of 10 mg/mL in methylcellulose/tween was made and sonicated (Soniprep 150, Sanyo) with an amplitude of 12-15 µm for 15 min. The dose for each monkey was transferred to a 50 mL tube, which was vortexed extensively just before administration.
To collect samples for KDU691 PK analysis in monkeys, approximately 100 µL blood was taken from the calf vein for each time point and immediately spotted onto DBS filters (PKI Bioanalysis cards, Perkin Elmer). […]
The monkeys of the LMV599/PQ experiment were cured with a five day CQ treatment (7.5 mg/kg, i.m. administration) at the first relapse and were monitored until the second relapse after which they were cured with CQ (7.5 mg/kg, intramuscular (i.m.) for five days) plus PQ (1.8 mg/kg for 14 days). […]

The subject of data set [2] is P. cynomolgi sporozoite-infected rhesus macaques (hypnozoites, relapse). Kind of data set: Radical cure in P. cynomolgi sporozoite-infected rhesus macaques. Format: in vivo, Plasmodium cynomolgi. The procedure:
Sporozoites were harvested from P. cynomolgi-infected mosquitoes, washed with phosphate-buffered saline (PBS), and diluted to 100,000 sporozoites (spz)/ml in PBS. One-milliliter aliquots of sporozoites were prepared and injected into monkeys via intravenous (i.v.) injection.
Monkeys were treated according to the schedule shown in Table 1 (stratification of treatment groups is given in the supplemental material). During treatment, monkeys were weighed daily and received the compound via gavage, followed by gastric feeding (weight change during treatment is shown in Table S6 in the supplemental material). Monkeys in the prophylaxis groups (groups 691-proph and 599-proph) were treated ∼20 min after the i.v. sporozoite injection. The other monkeys were treated when all the monkeys in the experiment (except those in the prophylaxis group) were blood-stage patent (at day 11 p.i.). To kill the blood-stage parasites, all monkeys received a 5-day treatment of 7.5 mg/kg of body weight of chloroquine (CQ) (intramuscular [i.m.] injection), during compound dosing. KDU691 was formulated in 0.5% methylcellulose and 0.5% Tween 80 in water. LMV599 was formulated as a solid dispersion in a solution containing 5.6% (wt/wt) Tween 80–44.4% hydroxypropyl methylcellulose (HPMC) E3–38.9% Soluplus–11.1% vitamin E D-alphatocopheryl polyethylene glycol 1000 succinate (TPGS).
Parasitemia was closely monitored by thin-film analysis. Animals were trained to present for thigh pricks, which was followed by a reward. Thin-film slides were stained with 20% Giemsa stain, and at least 50 fields (±20,000 erythrocytes [RBCs]) were analyzed with a bright-field microscope (×1,200 magnification). As soon as all monkeys other than the prophylactic treatment groups were blood-stage positive, treatment was started as indicated above (Table 1). After the last day of compound dosing, the absence of blood-stage parasites was confirmed by thin smears. From day 23 p.i., monkeys were monitored daily for relapses. The KDU691 radical-cure (group 691-RC) treatment and control groups were monitored until the first relapse. The LMV599 control (group 599-C), radical-cure (group 599-RC), and PQ radical-cure (group PQ-RC) treatment groups were monitored until the second relapse or until day 100 p.i. (whichever came first). At the end of the study, monkeys that had relapsed received a 14-day primaquine treatment, with a final check 2 weeks after the last primaquine dose.
as §1, §2, §3, §4
In vivo monkey infection and treatment procedures […]

Values joined by “and” are separate entries in the source; they are usually repeats but may differ in a detail not shown here. Equal entries are not always repeated. “Also recorded” adds a separate entry of the source.

With `CNC(=O)c1ccc(-c2cnc3cnc(C(=O)N(C)c4ccc(Cl)cc4)cn23)cc1` [KDU691], in data set [1], the “% fT > TRE” value came out at 16.7%, the AUC turned out to be 38.82 µM·h, the Cmax was 4.31 µM and the fAUC/TRE is reported as 13.08. In addition, the fCmax/TRE in data set [1] came out at 1.45. Also, the radical-cure outcome in data set [2] (five daily oral doses of 20 mg/kg from day 11 p.i., 20 mg/kg) was “did not prevent relapse; also recorded: none of the animals treated with KDU691 were radically cured”. Moreover, in data set [2] (group 691-RC, 20 mg/kg oral for 5 days from day 11 p.i. plus CQ, individual monkeys), the “Day p.i. to first relapse” value was 31 day p.i. and 32 day p.i. The “day p.i. to first relapse, group mean ± SD” value in data set [2] (group 691-RC, 20 mg/kg oral for 5 days from day 11 p.i., control 25 ± 1.4) amounted to 31.8 ± 0.5 days p.i. In data set [2] (group 691-RC, 20 mg/kg oral for 5 days, P = 0.00912, log rank test), the “delay to relapse compared to the control group” value is 6.8 days. Further, the “Day p.i. to primary parasitemia” value in data set [2] (group 691-RC, individual monkeys, baseline, before dosing started at day 11 p.i.) is 9 day p.i.
